Here are results for 14 compounds from patent publication US11780852B2, “Methods for treating Crohn's disease using 3-((1R,3s,5S)-3-((7-((5-methyl-1H-pyrazol-3-yl)amino)-1,6-naphthyridin-5-yl)amino)-8-azabicyclo[3.2.1]octan-8-yl)propanenitrile” (priority 2015, dated 2023).

One test concerns IL-4 induced STAT6 phosphorylation in THP-1 human monocytic cells.
Assay: not given
Details: not given
As for `Cc1cc(Nc2cc3ncccc3c(N[C@@H]3C[C@H]4CC[C@@H](C3)N4C3CCCOC3=O)n2)n[nH]1` (some centres unmarked) [Example 1-28], the “THP-1 IL4 pIC50” value is “C (key: A represents a pEC50 value ≥7.5 (EC50≤32 nM); B represents a pEC50 value between 6.7 and 7.5 (EC50 between 200 nM and 32 nM); C represents a pEC50 value <6.7 (EC50>200 nM))”.
Regarding `Cc1cc(Nc2cc3ncccc3c(N[C@@H]3C[C@H]4CC[C@@H](C3)N4Cc3ccc(O)cc3)n2)n[nH]1` [Example 1-18], the “THP-1 IL4 pIC50” value was “C (key: A represents a pEC50 value ≥7.5 (EC50≤32 nM); B represents a pEC50 value between 6.7 and 7.5 (EC50 between 200 nM and 32 nM); C represents a pEC50 value <6.7 (EC50>200 nM))”.
Still for that read-out and setting: the same measure for `Cc1cc(Nc2cc3ncccc3c(N[C@@H]3C[C@H]4CC[C@@H](C3)N4C(=O)c3ccncc3)n2)n[nH]1` [Example 2-13]: “B (key: A represents a pEC50 value ≥7.5 (EC50≤32 nM); B represents a pEC50 value between 6.7 and 7.5 (EC50 between 200 nM and 32 nM); C represents a pEC50 value <6.7 (EC50>200 nM))”.

Still in this test, the particulars now being: THP-1 cells, IL-4 induced STAT6 phosphorylation.
Consider `Cc1cc(Nc2cc3ncccc3c(N[C@H]3C[C@H]4CCC[C@@H](C3)N4C3CCOC3=O)n2)n[nH]1` (some centres unmarked) [Example 1-52], for which the “THP-1 IL4 pIC50” value is “B (B represents a pEC50 value between 6.7 and 7.5 (EC50 between 200 nM and 32 nM))”.

Another test deals with oxazolone-induced colitis. Briefly: Mouse model of oxazolone-induced colitis. Format: in vivo, BALB/C mice. The conditions noted are these: PO, 1, 3, and/or 10 mg/kg BID (doses up to 10 mg/kg BID). Here is the method:
Assay 7: Mouse Model of Oxazalone-Induced Colitis
Oxazolone-induced colitis is an experimental model that has a histological resemblance to human ulcerative colitis (Heller et al. Immunology, 2002, 17, 629-638). Adult BALB/C mice from Harlan were used in the assay. On day 1, animals were lightly anesthetized with isoflurane and the hairs between the shoulder were carefully removed before oxazolone (4%, 150 μL, 4:1 acetone:olive oil formulation) or vehicle solution was slowly applied for skin sensitization. Seven days after skin sensitization, the mice were fasted overnight, anesthetized with isoflurane inhalation, and a 1 mL syringe equipped with a 3.5-F catheter, filled with oxazolone solution, was inserted carefully about 4 cm into the colon of the mouse. Following insertion, 50 μL of the oxazolone solution (1%, 1:1 ethanol:water formulation) was injected very slowly (over 30 sec using an injection pump) into the colon. The catheter was removed and the mice were held vertically (head down) for 2 min to ensure that the entire oxazolone solution remained inside the colon. Drug treatment (PO, BID or TID) or vehicle was initiated a day prior to the oxazolone intrarectal (IR) challenge. Two-day post oxazolone intrarectal challenge, the Disease Activity Index (DAI) was assessed by treatment-blinded experimenters for each mouse according to the criteria score: stool consistency score (0, normal; 2, loose; 4, diarrhea), gross bleeding score (0, absence; 2, blood tinged; 4, presence), and weight loss score (0, none; 1, 1%-5%; 2, 5%-10^%; 3, 10%-20%; 4, more than 20%); DAI=average of (stool consistency score+gross bleeding score+weight loss score).
Selected compounds of the invention were tested in the assay. Efficacy in the model is evidenced by a decrease in DAI score as compared with the score from vehicle treated animals.
Consider `Cc1cc(Nc2cc3ncccc3c(N[C@@H]3C[C@H]4CC[C@@H](C3)N4CCF)n2)n[nH]1` [Example 2, N^5-((1R,3s,5S)-8-(2-fluoroethyl)-8-azabicyclo[3.2.1]octan-3-yl)-N^7-(5-methyl-1H-pyrazol-3-yl)-1,6-naphthyridine-5,7-diamine], for which the “DAI score as compared with vehicle treated animals” value is listed as “statistically significant decrease”.
On the same count and under the same terms, next, `Cc1cc(Nc2cc3nc(CO)ccc3c(N[C@@H]3C[C@H]4CC[C@@H](C3)N4CCC#N)n2)n[nH]1` [Example 5-11]: “did not exhibit a statistically significant decrease”.
Regarding `Cc1cc(Nc2cc3ncccc3c(N[C@@H]3C[C@H]4CC[C@@H](C3)N4S(=O)(=O)Cc3ccccc3)n2)n[nH]1` [Example 4-13], the “DAI score as compared with vehicle treated animals” value was “did not exhibit a statistically significant decrease”.
As to `Cc1cc(Nc2cc3ncccc3c(N[C@@H]3C[C@H]4CC[C@@H](C3)N4S(=O)(=O)C3CC3)n2)n[nH]1` [Example 4-4], the “DAI score as compared with vehicle treated animals” value is “did not exhibit a statistically significant decrease”.
On to `Cc1cc(Nc2cc3ncccc3c(N[C@@H]3C[C@H]4CCC[C@@H](C3)N4C(=O)C(C)(C)CO)n2)n[nH]1` [Example 2-22], for which the “DAI score as compared with vehicle treated animals” value was “did not exhibit a statistically significant decrease”.
Take `Cc1cc(Nc2cc3ncccc3c(N[C@@H]3C[C@H]4CCC[C@@H](C3)N4S(=O)(=O)C3CC3)n2)n[nH]1` [Example 4-18]: the “DAI score as compared with vehicle treated animals” value is reported as “did not exhibit a statistically significant decrease”.
Still for that read-out and setting: next, `COCCS(=O)(=O)N1[C@@H]2CCC[C@H]1C[C@H](Nc1nc(Nc3cc(C)[nH]n3)cc3ncccc13)C2` [Example 4-19]: “did not exhibit a statistically significant decrease”; `CCS(=O)(=O)N1[C@@H]2CC[C@H]1C[C@H](Nc1nc(Nc3cc(C)[nH]n3)cc3ncccc13)C2` [Example 7, N^5-((1R,3s,5S)-8-(ethylsulfonyl)-8-azabicyclo[3.2.1]octan-3-yl)-N^7-(5-methyl-1H-pyrazol-3-yl)-1,6-naphthyridine-5,7-diamine]: “did not exhibit a statistically significant decrease”; `Cc1cc(Nc2cc3ncccc3c(N[C@@H]3C[C@H]4CCC[C@@H](C3)N4S(=O)(=O)CC3CC3)n2)n[nH]1` [Example 4-23]: “did not exhibit a statistically significant decrease”.
With `Cc1cc(Nc2cc3ncccc3c(N[C@@H]3C[C@H]4CCC[C@@H](C3)N4S(=O)(=O)c3ccccc3)n2)n[nH]1` [Example 9, N-(5-methyl-1H-pyrazol-3-yl)-N-((1R,3s,5S)-9-(phenylsulfonyl)-9-azabicyclo[3.3.1]nonan-3-yl)-1,6-naphthyridine-5,7-diamine], the “DAI score as compared with vehicle treated animals” value is on record as “did not exhibit a statistically significant decrease”.
